These results are taken from patent publication US8609836B2, “4-aryl-2-anilino-pyrimidines” (Janssen Pharmaceutica NV, priority 2008, dated 2013).

The target of assay [1] is GSK3β (h) (Homo sapiens, UniProt P49841). As to the kind of experiment: GSK-3β human kinase inhibition, SPA. The class given is biochemical. To be noted: read-out: GSK3b pIC50 (converted). Put shortly: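 Radiometric: 33P-labelled peptide captured on streptavidin SPA beads after EDTA stop and imaged on Leadseeker. Reaction ran 1 h at RT, 1 μM cold ATP with 2 nM [γ-33P]ATP, 1 μM biotin-peptide substrate, human GSK3β 1 μg/ml, pH 7.4 Tris buffer.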
GSK3β (h), sequence (P49841 whole entry): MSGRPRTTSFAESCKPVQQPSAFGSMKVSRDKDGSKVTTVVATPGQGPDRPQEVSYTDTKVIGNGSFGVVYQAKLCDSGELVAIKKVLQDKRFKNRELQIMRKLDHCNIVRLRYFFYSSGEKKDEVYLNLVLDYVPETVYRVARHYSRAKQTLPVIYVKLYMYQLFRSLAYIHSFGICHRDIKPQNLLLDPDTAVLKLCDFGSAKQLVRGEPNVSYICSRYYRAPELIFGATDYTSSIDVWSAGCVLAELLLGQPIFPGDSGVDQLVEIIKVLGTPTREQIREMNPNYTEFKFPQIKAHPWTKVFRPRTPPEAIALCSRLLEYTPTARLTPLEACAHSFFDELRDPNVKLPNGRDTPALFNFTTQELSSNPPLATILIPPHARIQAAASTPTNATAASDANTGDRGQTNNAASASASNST

Assay [2] has as its target CDK1/CyclinB (h) (Homo sapiens, UniProt P06493). Briefly: CDK1/CyclinB human kinase inhibition, Invitrogen's FRET assay (Z'lyte). To be noted: read-out: CDK1 pIC50 (converted). The class given is biochemical. Put shortly: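 Read-out is the 460 nm/538 nm emission ratio (390 nm excitation) after a 60 min protease development step. Before that, 10 μM ATP and 2 μM Z'lyte Ser/Thr peptide 12 react 60 min at room temperature with 0.2 μg/ml human CDK1/CyclinB in Hepes pH 7.5 containing MgCl2, EGTA and Brij-35.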

Assay [3] deals with CDK4/CyclinD1 (h) (Homo sapiens, UniProt P11802). As to the kind of experiment: CDK4/CyclinD1 human kinase inhibition, SPA with GST-pRb substrate. It is filed as biochemical. The conditions noted are these: read-out: CDK4 pIC50 (converted). Put shortly:
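Scintillation proximity format: after EDTA/Triton stop containing glutathione SPA beads, 33P incorporation was counted. The reaction ran 60 min at room temperature in Hepes pH 7.5 with NaF, MgCl2, DTT, using 2.5 μg/ml human CDK4/CyclinD1, 40 μg/ml GST-pRb substrate and 2 nM [γ-33P]ATP.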

Assay [4] addresses PLK2 (h) (Homo sapiens, UniProt Q9NYY3). Briefly: PLK2 human kinase inhibition, SPA. The class given is biochemical. The conditions noted are these: read-out: PLK2 pIC50 (converted). Put shortly: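 33P incorporation into a biotinylated peptide (2 μM) was captured on streptavidin PVT beads and imaged on Leadseeker. Enzyme at 30 μg/ml, ATP 0.1 μM with 2 nM [γ-33P]ATP, Hepes pH 8.0 with MnCl2 and DTT. Incubation was 20 min at room temperature.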

Assay [5] addresses PLK3 (h) (Homo sapiens, UniProt Q9H4B4). Briefly: PLK3 human kinase inhibition, SPA. It is filed as biochemical. To be noted: read-out: PLK3 pIC50 (converted). Put shortly: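 Radiometric scintillation proximity format at pH 8.0 (Hepes, MnCl2, DTT). The 2 μM biotin-peptide substrate is phosphorylated by PLK3 (h) (30 μg/ml) using 0.1 μM ATP traced with 33P, for 20 min at room temperature. EDTA stop; phosphopeptide captured on streptavidin beads and imaged.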

The test system of assay [6] is HCT-116. Briefly: Cellular proliferation assay (Alamar blue), HCT-116. It is filed as cell-based. The conditions noted are these: Homo sapiens, 10% FCS, 72 hours with compound, Alamar blue 4 h. Put shortly:
(§1)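 Alamar blue conversion, quantified fluorimetrically (544 nm/590 nm), gave viable cell number relative to untreated controls; dye time 4 h for HCT-116, 6 h for U87-MG, 24 h for A2780 and MDA-MB-231. Compound exposure lasted 72 h, after 24 h pre-seeding, with 10% FCS, 37 °C, 5% CO2.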
(The colour change of resazurin is a common sign of viable cells or microbes.)

The test system of assay [7] is H1299. Briefly: Cellular proliferation assay (Alamar blue), H1299. The class given is cell-based. To be noted: Homo sapiens, NCI-H1299; 10% FCS; 72 hours with compound; Alamar blue 4 h. Put shortly:
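This proliferation assay on NCI-H1299 cells used an initial 24-hour compound-free incubation after seeding, followed by 72 hours of compound treatment with 10% FCS serum at 37° C. and 5% (v/v) CO2. Viable cells were quantified by a 4 h Alamar blue incubation and fluorescent plate reading at 544 nm/590 nm, and effects were expressed relative to control cells.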

The subject of assay [8] is U87-MG. Briefly: Cellular proliferation assay (Alamar blue), U87-MG. The class given is cell-based. The conditions noted are these: Homo sapiens, U-87 MG; 10% FCS; 72 hours with compound; Alamar blue 6 h; read-out: U87-MG (cellular proliferation assay, Table 4) (converted). Put shortly:
as §1

Assay [9] has as its system A2780. Briefly: Cellular proliferation assay (Alamar blue), A2780. The class given is cell-based. The conditions noted are these: Homo sapiens, 10% FCS, 72 hours with compound, Alamar blue 24 h, read-out: A2780 (cellular proliferation assay, Table 4) (converted). Put shortly:
as §1

The test system of assay [10] is MDA-MB-231. As to the kind of experiment: Cellular proliferation assay (Alamar blue), MDA-MB-231. It is filed as cell-based. To be noted: Homo sapiens, 10% FCS, 72 hours with compound, Alamar blue 24 h, read-out: MDA/MB231 (cellular proliferation assay, Table 4) (converted). Put shortly:
as §1

CDK1/CyclinB (h), sequence (P06493 whole entry): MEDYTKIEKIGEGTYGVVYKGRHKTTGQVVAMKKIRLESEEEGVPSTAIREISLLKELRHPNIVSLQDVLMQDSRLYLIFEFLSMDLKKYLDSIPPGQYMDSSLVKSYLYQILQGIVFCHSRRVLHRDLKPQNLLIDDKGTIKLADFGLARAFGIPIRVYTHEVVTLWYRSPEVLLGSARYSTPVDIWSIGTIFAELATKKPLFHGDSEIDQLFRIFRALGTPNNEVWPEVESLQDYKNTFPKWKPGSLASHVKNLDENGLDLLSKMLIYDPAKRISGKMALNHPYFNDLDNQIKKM
CDK1/CyclinB (h), sequence (P14635 whole entry partner): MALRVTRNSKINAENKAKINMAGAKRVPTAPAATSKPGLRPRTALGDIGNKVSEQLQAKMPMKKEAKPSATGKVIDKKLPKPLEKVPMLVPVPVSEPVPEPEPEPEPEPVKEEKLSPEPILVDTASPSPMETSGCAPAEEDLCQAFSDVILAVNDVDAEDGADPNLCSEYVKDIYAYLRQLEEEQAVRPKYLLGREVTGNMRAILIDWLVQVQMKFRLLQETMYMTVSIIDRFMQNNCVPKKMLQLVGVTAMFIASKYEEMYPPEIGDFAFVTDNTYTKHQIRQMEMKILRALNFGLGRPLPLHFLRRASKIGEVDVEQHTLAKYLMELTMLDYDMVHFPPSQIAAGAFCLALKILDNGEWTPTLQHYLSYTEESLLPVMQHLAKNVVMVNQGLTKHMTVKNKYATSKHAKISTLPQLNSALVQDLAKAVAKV
PLK3 (h), sequence (Q9H4B4 whole entry): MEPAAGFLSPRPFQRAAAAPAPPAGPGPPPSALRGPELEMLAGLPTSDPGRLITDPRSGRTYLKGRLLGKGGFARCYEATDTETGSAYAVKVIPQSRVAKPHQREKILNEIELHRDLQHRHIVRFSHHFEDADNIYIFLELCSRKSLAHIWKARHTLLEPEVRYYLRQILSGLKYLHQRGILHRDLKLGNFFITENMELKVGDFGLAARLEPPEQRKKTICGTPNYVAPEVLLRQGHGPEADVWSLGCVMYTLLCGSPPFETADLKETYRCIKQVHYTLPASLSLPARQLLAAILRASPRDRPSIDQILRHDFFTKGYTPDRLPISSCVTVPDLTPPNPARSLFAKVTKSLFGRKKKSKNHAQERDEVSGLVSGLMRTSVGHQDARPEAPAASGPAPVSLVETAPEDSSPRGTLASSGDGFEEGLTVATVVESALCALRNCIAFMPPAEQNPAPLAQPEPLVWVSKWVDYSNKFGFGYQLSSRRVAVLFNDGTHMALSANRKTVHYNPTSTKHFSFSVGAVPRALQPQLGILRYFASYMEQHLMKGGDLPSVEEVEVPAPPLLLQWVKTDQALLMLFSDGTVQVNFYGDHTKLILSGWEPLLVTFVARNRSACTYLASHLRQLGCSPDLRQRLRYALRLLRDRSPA
CDK4/CyclinD1 (h), sequence (P11802 whole entry): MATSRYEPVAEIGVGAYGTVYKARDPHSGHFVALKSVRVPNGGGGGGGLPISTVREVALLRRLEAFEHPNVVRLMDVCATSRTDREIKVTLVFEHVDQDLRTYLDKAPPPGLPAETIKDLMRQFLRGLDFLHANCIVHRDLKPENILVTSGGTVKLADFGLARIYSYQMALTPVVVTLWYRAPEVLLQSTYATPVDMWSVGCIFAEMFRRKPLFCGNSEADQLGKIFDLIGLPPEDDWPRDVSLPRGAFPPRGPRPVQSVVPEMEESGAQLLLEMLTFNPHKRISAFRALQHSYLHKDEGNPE
CDK4/CyclinD1 (h), sequence (P24385 whole entry partner): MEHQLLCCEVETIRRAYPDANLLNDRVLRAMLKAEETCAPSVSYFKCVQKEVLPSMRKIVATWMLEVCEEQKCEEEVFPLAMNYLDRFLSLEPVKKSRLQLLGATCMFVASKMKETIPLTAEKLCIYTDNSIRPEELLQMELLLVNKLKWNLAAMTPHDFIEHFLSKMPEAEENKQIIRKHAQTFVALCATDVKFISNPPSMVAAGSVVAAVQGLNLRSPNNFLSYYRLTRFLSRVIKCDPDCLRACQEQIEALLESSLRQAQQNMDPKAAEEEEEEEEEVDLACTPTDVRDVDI
PLK2 (h), sequence (Q9NYY3 whole entry): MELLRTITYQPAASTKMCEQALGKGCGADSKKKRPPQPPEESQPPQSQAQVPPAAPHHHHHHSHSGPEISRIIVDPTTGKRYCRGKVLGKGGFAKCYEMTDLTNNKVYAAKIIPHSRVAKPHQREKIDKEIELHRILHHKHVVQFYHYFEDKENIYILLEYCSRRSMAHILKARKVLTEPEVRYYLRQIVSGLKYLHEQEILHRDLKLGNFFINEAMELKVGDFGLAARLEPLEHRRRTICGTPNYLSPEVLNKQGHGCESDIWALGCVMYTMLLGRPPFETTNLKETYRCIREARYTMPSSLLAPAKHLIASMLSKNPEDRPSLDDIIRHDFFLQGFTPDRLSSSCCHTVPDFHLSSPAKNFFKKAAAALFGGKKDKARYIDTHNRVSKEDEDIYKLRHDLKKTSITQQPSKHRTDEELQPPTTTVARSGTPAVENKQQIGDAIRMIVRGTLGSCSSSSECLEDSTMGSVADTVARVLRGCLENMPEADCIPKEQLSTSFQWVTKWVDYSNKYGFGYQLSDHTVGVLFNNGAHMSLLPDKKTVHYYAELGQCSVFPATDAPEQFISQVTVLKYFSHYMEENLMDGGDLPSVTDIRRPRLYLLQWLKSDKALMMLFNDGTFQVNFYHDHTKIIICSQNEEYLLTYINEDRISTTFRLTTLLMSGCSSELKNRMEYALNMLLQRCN

On to `CN1CCNC(=O)[C@H](CO)NCc2cccc(c2)Nc2nccc(n2)-c2ccc(cc2)C1` [Compound 114], for which the IC50 was 2.82 µM in assay [1]; > 10 µM in assay [2]; > 10 µM in assay [3]; ~3.02 µM in assay [4]; > 10 µM in assay [5]; > 10 µM in [6]. In addition, the IC50 in [7], in assay [8], in assay [9] and in assay [10] was > 10 µM throughout.
Regarding `O=C1NCc2cc(ccc2N2CCOCC2)Nc2nccc(n2)-c2cccc(c2)CN2CCC[C@@H]12` [Compound 15], the IC50 in assay [1] is 0.372 µM; in assay [2], > 10 µM; in [3], 4.47 µM; in [4], > 10 µM; in [5] it was > 10 µM; in assay [6], 8.32 µM. For the same compound, the IC50 in assay [7] was > 10 µM; in assay [8] it was 7.94 µM; in assay [9] it was 7.08 µM; in assay [10], > 10 µM.
`CN(C)C(=O)c1cc2cc(c1)Nc1nccc(n1)-c1cccc(c1)CNC(=O)[C@@H]1CCCN1C2` [Compound 35]: the IC50 in assay [1] is 0.204 µM; in assay [2] it was 0.288 µM; in [3], 1.35 µM; in assay [4] it was > 10 µM; in assay [5] it was > 10 µM; in assay [6], 1.32 µM. In addition, the IC50 in assay [7] is > 10 µM; in assay [8], 1.45 µM; in assay [9], 3.39 µM; in assay [10], > 10 µM.
As to `O=C1NCc2ccc(cc2)-c2ccnc(n2)Nc2ccc(N3CCOCC3)c(c2)CN2CCC[C@@H]12` [Compound 49], the IC50 in assay [1], in [2], in assay [3], in assay [4], in assay [5] and in assay [6] was > 10 µM each time. The IC50 in assay [7] is > 10 µM; in assay [8], 1.74 µM; in [9], 4.07 µM; in [10] it was > 10 µM.
As to `COc1cc2cc(c1)Nc1nccc(n1)-c1ccc(cc1)CN(C)CCNC(=O)CN1CCN(CC1)C2` [Compound 132], the IC50 was 2 µM in [1]; > 10 µM in [2]; > 10 µM in [3]; > 3.02 µM in assay [4]; > 10 µM in [5]; 5.89 µM in [6]. Also, the IC50 in assay [7] was > 10 µM; in assay [8], 8.71 µM; in assay [9], > 10 µM; in [10] it was > 10 µM.
Consider `COc1cc2cc(c1)Nc1nccc(n1)-c1ccc(cc1)CN(C)CCNC(=O)[C@@H]1CCCN1C2` [Compound 158], for which the IC50 was > 10 µM in assay [1]; 8.71 µM in [2]; > 10 µM in assay [3]; > 3.02 µM in [4]; 7.08 µM in assay [5]; > 10 µM in [6]. Also, the IC50 in [7], in assay [8], in [9] and in assay [10] was > 10 µM throughout.
Consider `O=C1NCc2cccc(c2)-c2ccnc(n2)Nc2cccc(c2)CN[C@H]1CO` [Compound 187], for which the IC50 in assay [1] was 0.0537 µM; in assay [2], 0.646 µM; in assay [3], 1.2 µM; in assay [4], > 10 µM; in assay [5], > 10 µM; in assay [6], 1.35 µM. The IC50 in [7] was 6.17 µM; in [8] it was > 10 µM; in [9] it was 5.5 µM; in assay [10], 7.94 µM.
`O=C1NCCNCc2ccc(cc2)-c2ccnc(n2)Nc2ccc(N3CCOCC3)c(c2)CN2CCC[C@@H]12` [Compound 157]: the IC50 in assay [1] was 6.61 µM; in [2], > 10 µM; in assay [3], > 10 µM; in assay [4] it was > 10 µM; in assay [5], 9.55 µM; in assay [6] it was 6.46 µM. Besides, the IC50 in assay [7] was 5.13 µM; in assay [8], > 10 µM; in assay [9], 6.46 µM; in [10] it was > 10 µM.
`O=C1NCc2cccc(c2)-c2ccnc(n2)Nc2cccc(c2)CN2C[C@@H](O)C[C@@H]12` [Compound 45]: the IC50 in [1] was 0.0724 µM; in [2], 0.0708 µM; in assay [3] it was 0.933 µM; in assay [4], > 10 µM; in assay [5], > 10 µM; in assay [6], 0.295 µM. The IC50 in assay [7] was 1.17 µM; in assay [8], 0.912 µM; in assay [9] it was 1.66 µM; in [10], 6.76 µM.
For the compound `COc1ccc2cc1CN(C)CCNC(=O)[C@@H]1CCCN1Cc1cc(C#N)cc(c1)Nc1nccc-2n1` [Compound 181], the IC50 in assay [1] was > 10 µM; in assay [2], > 10 µM; in assay [3], > 10 µM; in assay [4], > 10 µM; in assay [5], > 10 µM; in [6], 4.9 µM. Also, the IC50 in [7] was > 10 µM; in assay [8], 9.12 µM; in [9] it was > 10 µM; in assay [10], > 10 µM.
Take `O=C1NCc2cccc(c2)-c2ccnc(n2)Nc2ccccc2CN2CCC[C@@H]12` [Compound 57]: the IC50 was > 10 µM in assay [1]; > 10 µM in assay [2]; > 10 µM in [3]; > 10 µM in [4]; > 1 µM in assay [5]; > 10 µM in assay [6]. The IC50 in assay [7], in assay [8], in [9] and in assay [10] was > 10 µM throughout.
As for `O=C1NCc2cccc(c2)-c2ccnc(n2)Nc2cc(ccc2Cl)CN[C@H]1CO` [Compound 188], the IC50 in [1] is 6.61 µM; in assay [2], 9.12 µM; in assay [3], > 10 µM; in assay [4] it was > 10 µM; in assay [5], > 10 µM; in assay [6], > 10 µM. The IC50 in assay [7], in assay [8], in assay [9] and in assay [10] was > 10 µM each time.
On to `COCCNC(=O)c1cc2cc(c1)Nc1nccc(n1)-c1cccc(c1)CNC(=O)[C@@H]1CCCN1C2` [Compound 44], for which the IC50 in assay [1] is 0.166 µM; in assay [2], 0.427 µM; in assay [3], 3.63 µM; in assay [4] it was > 10 µM; in [5] it was > 10 µM; in assay [6], 1.82 µM. Also, the IC50 is > 10 µM in [7], 1.91 µM in assay [8], 6.03 µM in assay [9] and > 10 µM in [10].
On to `COc1cc2cc(c1)Nc1nccc(n1)-c1ccc(OC)c(c1)CN(C)CCCNC(=O)[C@@H]1CCCN1C2` [Compound 171], for which the IC50 is > 10 µM in [1]; > 10 µM in assay [2]; > 10 µM in [3]; > 10 µM in [4]; > 10 µM in [5]; 6.61 µM in assay [6]. The IC50 is > 10 µM in assay [7], 6.17 µM in [8], > 10 µM in [9] and > 10 µM in assay [10].
With `CC(C)(C)O[C@@H]1C[C@H]2C(=O)NCc3cccc(c3)-c3ccnc(n3)Nc3ccccc3CN2C1` [Compound 58], the IC50 in assay [1], in assay [2], in assay [3], in assay [4], in assay [5] and in [6] was > 10 µM throughout. Further, the IC50 in assay [7], in assay [8], in [9] and in assay [10] was > 10 µM each time.
